Measured values from ChEMBL document CHEMBL1201862, “PubChem BioAssay data set” (2004).
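1) Cells in 96-well plates. 2) Compound, 48 h, 5 concentrations. 3) Linear interpolation between surrounding doses. 4) Unreached endpoint = highest concentration. Here, GI50 denotes the concentration required for 50% inhibition of growth.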 Activity calls are given as the source filed them. No stated cut-off is given here; in the data, active = GI50 up to about 1.1 µM and inactive = higher.

What was measured:
Assay in all cases: growth of human tumour cells (NCI), 48 h
ACHN = system: ACHN
COLO 205 = system: COLO 205
EKVX = system: EKVX
HCC 2998 = system: HCC 2998
HL-60 = system: HL-60
HOP-62 = system: HOP-62
K562 = system: K562
LOX IMVI = system: LOX IMVI
M14 = system: M14
NCI-H226 = system: NCI-H226
NCI-H460 = system: NCI-H460
NCI-H522 = system: NCI-H522
SF-268 = system: SF-268
SF-539 = system: SF-539
SK-MEL-2 = system: SK-MEL-2
SN12C = system: SN12C
SNB-19 = system: SNB-19
U-251 = system: U-251
UACC-257 = system: UACC-257
DU-145 = system: DU-145

Row | SMILES | GI50 (ACHN) | GI50 (COLO 205) | GI50 (EKVX) | GI50 (HCC 2998) | GI50 (HL-60) | GI50 (HOP-62) | GI50 (K562) | GI50 (LOX IMVI) | GI50 (M14) | GI50 (NCI-H226) | GI50 (NCI-H460) | GI50 (NCI-H522) | GI50 (SF-268) | GI50 (SF-539) | GI50 (SK-MEL-2) | GI50 (SN12C) | GI50 (SNB-19) | GI50 (U-251) | GI50 (UACC-257) | GI50 (DU-145)
1 | N=C1c2ccccc2C(=O)c2c(NCCNCCO)ccc(O)c21 | 3.23 µM (inactive) | 4.73 µM (inactive) | 12 µM (inactive) | 9.42 µM (inactive) | 6.85 µM (inactive) | 4.91 µM (inactive) | 3.64 µM (inactive) | 4.15 µM (inactive) | 10.3 µM (inactive) | 9.84 µM (inactive) | 5.06 µM (inactive) | 3.4 µM (inactive) | 3.3 µM (inactive) | 4.73 µM (inactive) | 17.1 µM (inactive) | 4.83 µM (inactive) | 8.24 µM (inactive) | 4.46 µM (inactive) | 13.9 µM (inactive) | 
2 | CC(C)(C)c1cc2c3c(c1)c(=O)c1cccc4c(O)c5cccc(c2=O)c5c-3c41 | > 100 µM (inactive) | > 100 µM (inactive) | > 100 µM (inactive) | 0.0105 µM (active) | 58.5 µM (inactive) | 47 µM (inactive) | 38.5 µM (inactive) | 41.2 µM (inactive) | 40.7 µM (inactive) | > 100 µM (inactive) | 54.1 µM (inactive) | > 100 µM (inactive) | > 100 µM (inactive) | 10 µM (inactive) | 24.7 µM (inactive) | > 100 µM (inactive) | > 100 µM (inactive) | 57.7 µM (inactive) | > 100 µM (inactive) | 
3 | COC(=O)[C@@]12C3=NO[C@]1(C(=O)OC)C(O[Si](C)(C)C(C)(C)C)[C@@H](OC(C)=O)[C@@H](OC(C)=O)[C@@H]2[C@@H](OCc1ccccc1)CC3 (some centres not stated) | 4.44 µM (inactive) | > 100 µM (inactive) | > 27.7 µM (inactive) | > 100 µM (inactive) | 3.86 µM (inactive) | > 100 µM (inactive) | 5.26 µM (inactive) | 8.81 µM (inactive) | > 100 µM (inactive) | 14.9 µM (inactive) | 3.59 µM (inactive) | 3.86 µM (inactive) | 5.79 µM (inactive) | > 100 µM (inactive) | 8.26 µM (inactive) | > 100 µM (inactive) | 8.81 µM (inactive) | 8.99 µM (inactive) | 17.4 µM (inactive) | 
4 | COc1cccc(/C(Cl)=C(\C=O)c2cccc(OC)c2)c1 | 6.9 µM (inactive) | 11.9 µM (inactive) | 14.9 µM (inactive) | 13.2 µM (inactive) | 2.69 µM (inactive) | 12.3 µM (inactive) | 4.06 µM (inactive) | 6.71 µM (inactive) | 13.1 µM (inactive) | 11 µM (inactive) | 12.7 µM (inactive) | 2.68 µM (inactive) | 3.88 µM (inactive) | 17.4 µM (inactive) | 15.4 µM (inactive) | 14 µM (inactive) | 11.3 µM (inactive) | 10.1 µM (inactive) | 15.3 µM (inactive) | 
5 | O=c1/c(=C/c2ccccc2[N+](=O)[O-])sc2nnc(-c3ccco3)n12 | 52.5 µM (inactive) | 30.4 µM (inactive) | 36.2 µM (inactive) | 22.4 µM (inactive) | 24.8 µM (inactive) | 19.3 µM (inactive) | 50.9 µM (inactive) | 16.9 µM (inactive) | 18 µM (inactive) | 23 µM (inactive) | 25.2 µM (inactive) | 18.2 µM (inactive) | 20.1 µM (inactive) | 18.7 µM (inactive) | 15.8 µM (inactive) | 34.5 µM (inactive) | 22.4 µM (inactive) | 21.2 µM (inactive) | 33.9 µM (inactive) | 
6 | C=CCN1C[C@@H](C)N([C@@H](c2ccc(C(=O)N(CC)CC)cc2)c2cccc(OC)c2)C[C@@H]1C | > 100 µM (inactive) | > 100 µM (inactive) | > 100 µM (inactive) |  |  | > 100 µM (inactive) | > 100 µM (inactive) | > 100 µM (inactive) | > 100 µM (inactive) | > 100 µM (inactive) |  | > 100 µM (inactive) | > 100 µM (inactive) | > 100 µM (inactive) | > 100 µM (inactive) | > 100 µM (inactive) | > 100 µM (inactive) | > 100 µM (inactive) |  | > 100 µM (inactive)
7 | CCOC(=O)c1ccc2nc(NC(=O)COC(=O)CSc3nc(C)cc(C)n3)sc2c1 | 46.5 µM (inactive) | 99.1 µM (inactive) | 18.5 µM (inactive) |  | 15.8 µM (inactive) | 13.7 µM (inactive) | > 100 µM (inactive) | 48 µM (inactive) | 41.6 µM (inactive) |  | 38.7 µM (inactive) | 64 µM (inactive) | 67.8 µM (inactive) | 26.1 µM (inactive) | > 100 µM (inactive) | 39 µM (inactive) | 37.8 µM (inactive) | 48.6 µM (inactive) | > 100 µM (inactive) | 28.3 µM (inactive)
8 | COc1ccc(C)cc1-c1ccc(-c2cc(C)ccc2OC)o1 | > 100 µM (inactive) | > 100 µM (inactive) | > 100 µM (inactive) | > 100 µM (inactive) | 86.5 µM (inactive) | > 100 µM (inactive) | > 100 µM (inactive) | > 100 µM (inactive) | > 100 µM (inactive) | > 100 µM (inactive) | > 100 µM (inactive) | > 100 µM (inactive) | > 100 µM (inactive) | > 100 µM (inactive) | 56.9 µM (inactive) | > 100 µM (inactive) | > 100 µM (inactive) | > 100 µM (inactive) | > 100 µM (inactive) | 
9 | NC(=S)c1cccc(C2Nc3ccccc3O2)c1 (configuration not stated) | 40.2 µM (inactive) | > 100 µM (inactive) | 0.019 µM (active) |  | 12.1 µM (inactive) | > 100 µM (inactive) | 30.5 µM (inactive) |  | > 100 µM (inactive) | 12.1 µM (inactive) | 49.2 µM (inactive) | 71.1 µM (inactive) | > 100 µM (inactive) | 61.1 µM (inactive) | > 100 µM (inactive) | < 0.01 µM (active) | > 100 µM (inactive) | > 100 µM (inactive) | 22.1 µM (inactive) | > 100 µM (inactive)
10 | O=S(=O)(O)c1ccc2c(/N=N/c3cccc4ccccc34)c(O)ccc2c1 | > 100 µM (inactive) | > 100 µM (inactive) | > 100 µM (inactive) |  | > 100 µM (inactive) | > 100 µM (inactive) | > 100 µM (inactive) | > 100 µM (inactive) | > 100 µM (inactive) | > 100 µM (inactive) |  | > 100 µM (inactive) | > 100 µM (inactive) |  | > 100 µM (inactive) | > 100 µM (inactive) | 74.6 µM (inactive) | 87.1 µM (inactive) | > 100 µM (inactive) | > 100 µM (inactive)
11 | CC(=O)Oc1cc(S(=O)(=O)Nc2n[nH]c(Nc3ccc(C)cc3)n2)c(S)cc1Cl | 54.8 µM (inactive) | > 100 µM (inactive) | > 100 µM (inactive) |  | 45.7 µM (inactive) |  | 68.1 µM (inactive) | > 100 µM (inactive) | > 100 µM (inactive) |  | > 100 µM (inactive) | 92 µM (inactive) |  | > 100 µM (inactive) | > 100 µM (inactive) | > 100 µM (inactive) | > 100 µM (inactive) | > 100 µM (inactive) | > 100 µM (inactive) | > 100 µM (inactive)
12 | CC(=O)NC1=C(NCCO)C(=O)c2ccccc2C1=O | > 50 µM (inactive) | > 50 µM (inactive) | > 50 µM (inactive) | > 50 µM (inactive) | 20.8 µM (inactive) | > 50 µM (inactive) | > 50 µM (inactive) | > 50 µM (inactive) | > 50 µM (inactive) | > 50 µM (inactive) | > 50 µM (inactive) | 24.5 µM (inactive) | > 50 µM (inactive) | > 50 µM (inactive) | > 50 µM (inactive) | > 50 µM (inactive) | > 50 µM (inactive) | > 50 µM (inactive) | > 50 µM (inactive) | 
13 | O=P1(Oc2ccccc2)N=P(c2ccccc2)(c2ccccc2)C=C(c2ccc(Cl)cc2)N1 (configuration not stated) | 13 µM (inactive) | 5.15 µM (inactive) | 7.89 µM (inactive) |  | 4.86 µM (inactive) | 16.4 µM (inactive) | 5.43 µM (inactive) |  | 7.67 µM (inactive) |  | 5.14 µM (inactive) | 10.1 µM (inactive) | 11.6 µM (inactive) | 15.3 µM (inactive) | 13.5 µM (inactive) | 16.6 µM (inactive) | 15.3 µM (inactive) | 5.51 µM (inactive) | 15.4 µM (inactive) | 13.9 µM (inactive)
14 | COc1cc(/C=C/c2ccc(Br)cc2)cc(OC)c1OC | 18.9 µM (inactive) | 8.83 µM (inactive) | 11.2 µM (inactive) | 7.6 µM (inactive) | 3.74 µM (inactive) | 13.7 µM (inactive) | 3.71 µM (inactive) | 14.1 µM (inactive) | 14.4 µM (inactive) | 15.9 µM (inactive) | 11.6 µM (inactive) | 11.8 µM (inactive) | 9.12 µM (inactive) | 11.4 µM (inactive) | 14.6 µM (inactive) | 18.7 µM (inactive) | 21.1 µM (inactive) | 10.1 µM (inactive) | 13.5 µM (inactive) | 
15 | CCOC(=O)C(=O)Nc1ccccc1OCC | > 100 µM (inactive) |  | > 100 µM (inactive) | > 100 µM (inactive) | > 100 µM (inactive) | > 100 µM (inactive) | > 100 µM (inactive) | > 100 µM (inactive) | > 100 µM (inactive) | > 100 µM (inactive) | > 100 µM (inactive) | > 100 µM (inactive) | > 100 µM (inactive) | > 100 µM (inactive) | > 100 µM (inactive) | > 100 µM (inactive) | > 100 µM (inactive) | > 100 µM (inactive) | > 100 µM (inactive) | 
